{"source": "patent EP1541138A1", "about": "“Novel use of peptide compounds for treating status epilepticus or related conditions” (SCHWARZ PHARMA AG, priority 2003, dated 2005)", "key": {"[1]": {"experiment": "SSSE after brief electrical stimulation of the perforant path (EEG monitoring for 24 hrs)", "type": "in vivo, male Wistar rats", "conditions": "for cumulative seizure duration over the 24h period / time to the last seizure: Experiment 1a: 60 minutes stimulation, i.v. 10 min after end of perforant path stimulation, SPM 927 50 mg/kg, PHT 50 mg/kg, DZP 10 mg/kg, compared to control animals (Fig. 1); for time after injection within which seizures stopped: 50 mg/kg i.v. (fosphenytoin: phenytoin equivalent) 10 min after end of stimulation (Fig. 2A); for Spike frequency (number of spikes/10 min): 50 mg/kg i.v., vs control animals (Fig. 2B)", "description": "(§1) Animals: The experiments were performed on male Wistar rats, 280-300g (Simonsen Labs, CA). Animals were kept at a constant room temperature with 12 hours artificial dark-light cycle with free access to standard diet and tap water.\nSurgery: Under ketamine (60 mg/kg)/xylazine (15 mg/kg) anesthesia, animals were implanted with a bipolar stimulating electrode into the angular bundle of the perforant path (4.5 mm to left lambda, 1 mm anterior to lambdoid fissure) and a bipolar recording electrode into the granule cell layer of the ipsilateral dentate gyrus (3.5 mm anterior to lambda, 2.2 mm left to saggital fissure). Depth of both electrodes was optimized by monitoring the amplitude and waveform of the population spike evoked from the dentate gyrus by stimuli delivered through the perforant path (single square wave monophasic stimuli, 20 V, 0.1 ms delivered every 10 s).\nInduction of self-sustaining status epilepticus (SSSE): Seven days after surgery, animals were connected to a Cardionics 16 channel preamplifier, which was connected to the IBM computer. After 5 minutes of baseline EEG recording, animals were stimulated in the awake state for 60 minutes (Experiment 1 a) or 30 minutes (Experiments 1b and 1 c) with 10 s 20 Hz trains (1 ms square wave, 20 V) delivered every minute, together with 2 Hz continuous stimulation with the same parameters.\nEEG monitoring and analysis: EEG from the dentate gyrus was monitored and recorded by means of commercial software (Monitor 8.1 from Stellate Systems). The software was configured for automatic detection and saving of spikes and seizures. Monitoring was performed for 24 hrs. EEG was analyzed off line by means of the same software. Spike distribution was presented as number of spikes per 10 min epoch, and the cumulated duration of seizures for 24 hrs of monitoring were calculated. Statistical analysis was performed by means of T-test. A p value less than 0.05 was considered statistically significant.\nDrug administration: SPM 927 (50 mg/kg, 5 animals), phenytoin (PHT) (50 mg/kg), Fosphenytoin (F-PTH Porte-Davis, 50 mg/kg of phenytoin equivalent, 5 animals), diazepam (DZP) (10mg/kg) or vehicle (VEH, 10% DMSO, 6 animals) were given i.v. 10 min after the end of perforant path stimulation in a volume of 1 ml/kg."}, "[2]": {"experiment": "Chemically induced SSSE (cobalt/homocysteine model, homocysteine thiolactone injection)", "type": "in vivo, Male Sprague-Dawley rats", "description": "Male Sprague-Dawley rats were prepared surgically with cobalt powder on the left frontal cortical surface.\nRecording and stimulation protocol: four epidural recording electrodes arranged in a square grid (5mm) over the cobalt lesion. EEG was monitored daily beginning 4-5 days following surgery. Status epilepticus was induced by i.p. injection of 5.5mmol/kg homocysteine thiolactone whenever focal motor behaviour and EEG seizures were observed.\nDrug administration: SPM 927 was administered (10-100mg/kg) immediately following the second generalized tonic-clonic seizure (GTCS) occurring after homocysteine thiolactone injection."}, "[3]": {"experiment": "Hippocampal damage following SSSE (count of damaged neurons in brain sections, light microscopy)", "type": "in vivo, male Wistar rats", "description": "as §1\nSurgery: Under ketamine (60 mg/kg)/xylazine (15 mg/kg) anesthesia, animals were implanted with a bipolar stimulating electrode into the angular bundle of the perforant path (4.5 mm to left lambda, 1 mm anterior to lambdoid fissure) and a bipolar recording electrode into the granule cell layer of the ipsilateral dentate gyrus (3.5 mm anterior to lambda, 2.2 mm left to saggital fissure). […]\nSelection of sections for counting: Selection of sections for counting was controlled by the stereotaxic atlas for rats (Paxinos and Watson). The 3 sections selected for quantitation contained dorsal hippocampus and were 1.6 ±0.05mm posterior to bregma.\nLocation of counting fields ― damage to the pyramidal cell layer was assessed by counting damaged neurons in the subiculum, CA1, CA3, CA3c and the hilus in the dorsal hippocampus. The neurons were assessed individually from the beginning of the subiculum to the end of the CA3c region using an Olympus Provis Ax 70 microscope at a magnification of 40x. […]\nCriteria for differentiation of damaged versus non-damaged neurons - neurons were counted only if the majority of the nucleus was present in the section. […]"}, "[4]": {"conditions": "Experiment 1b: 30 minutes stimulation"}, "[5]": {"conditions": "SPM 927 10-100mg/kg immediately following the second GTCS, 30 min following treatment"}}}
{"compound": "CN1C(=O)CN=C(c2ccccc2)c2cc(Cl)ccc21", "note": "[DZP, diazepam, reference compound]", "values": [{"measurement": "cumulative seizure duration over the 24h period", "setting": "[1]", "value": "potently and significantly reduced"}, {"measurement": "time to the last seizure", "setting": "[1]", "value": "potently and significantly reduced"}]}
{"compound": "O=C1NC(c2ccccc2)(c2ccccc2)C(=O)N1COP(=O)(O)O", "note": "[Fosphenytoin, reference compound]", "values": [{"measurement": "time after injection within which seizures stopped", "setting": "[1]; [4]", "value": "≤ 15", "unit": "min"}, {"measurement": "Spike frequency (number of spikes/10 min)", "setting": "[1]; [4]", "value": "significantly lower than in control animals but significantly higher than in SPM 927 treated rats"}]}
{"compound": "O=C1NC(=O)C(c2ccccc2)(c2ccccc2)N1", "note": "[PHT, phenytoin, reference compound]", "values": [{"measurement": "cumulative seizure duration over the 24h period", "setting": "[1]", "value": "potently and significantly reduced"}, {"measurement": "time to the last seizure", "setting": "[1]", "value": "potently and significantly reduced"}]}
{"compound": "COC[C@@H](NC(C)=O)C(=O)NCc1ccccc1", "note": "[SPM 927, (R)-2-acetamide-N-benzyl-3-methoxypropionamide]", "values": [{"measurement": "cumulative seizure duration over the 24h period", "setting": "[1]", "value": "potently and significantly reduced"}, {"measurement": "time to the last seizure", "setting": "[1]", "value": "potently and significantly reduced"}, {"measurement": "efficacy on both parameters (cumulative seizure duration, time to the last seizure) when compared to DZP and PHT", "setting": "[1]; Experiment 1a, SPM 927 50 mg/kg i.v. vs DZP 10 mg/kg and PHT 50 mg/kg (Fig. 1)", "value": "somewhat more efficacious"}, {"measurement": "recurrence of seizures over the next 24 hrs", "setting": "[1]; Experiment 1b: 30 minutes stimulation, 50 mg/kg i.v. (Fig. 2A)", "value": "did not recur"}, {"measurement": "time for which only a few single spikes were recorded", "setting": "[1]; Experiment 1b: 30 minutes stimulation, 50 mg/kg i.v. (Fig. 2B)", "value": "about 12 hrs"}, {"measurement": "time after injection within which seizures stopped", "setting": "[1]; [4]", "value": "≤ 15", "unit": "min"}, {"measurement": "Spike frequency (number of spikes/10 min)", "setting": "[1]; [4]", "value": "significantly decreased"}, {"measurement": "latency to the first GTCS", "setting": "[2]; [5]", "value": "prolonged"}, {"measurement": "mean number of GTCS", "setting": "[2]; [5]", "value": "potently reduced"}, {"measurement": "number of rats experiencing GTCS", "setting": "[2]; SPM 927 10-100mg/kg immediately following the second GTCS, observed 30 min following treatment", "value": "reduced in a dose-dependent fashion"}, {"measurement": "GTCS at the highest dose", "setting": "[2]; highest dose of SPM 927 (range 10-100mg/kg), 30 min following treatment", "value": "completely abolished all GTCS"}, {"measurement": "injured neurons in hippocampal fields", "setting": "[3]; Experiment 1c: 30 minutes stimulation, SPM 927 50 mg/kg i.v., brains collected 72 hours after SSSE, subiculum, CA1, CA3, CA3c, hilus", "value": "only an occasional injured neuron in any hippocampal field"}, {"measurement": "protection against neuronal injury, statistical significance", "setting": "[3]; Experiment 1c, vs untreated rats, by hippocampal field", "value": "statistically significant in the subiculum, CA1 and CA3"}]}
